Results on two compounds are retold here after patent EP2417971A1, “Clomiphene for use in increasing the chances of pregnancy of women having a low ovarian reserve” (Nitzschke, Markus, priority 2010, dated 2012).

Where “and” joins values, the source holds several entries; their conditions need not be identical. Equal entries are not always repeated. Structures can show the parent of a compound that is named as a salt.

One data set deals with endometrium. Details: species or system human. The settings on record: in vivo. The text has this:
Teramoto has therefore used Clomiphene, inter alia, to control the ovulation process in the course of an in vitro fertilization (IVF). To make use of both the stimulating and the inhibiting effect of Clomiphene, Teramoto et al had to administer Clomiphene right at the beginning of the menstrual cycle until the day of induction of ovulation, which is usually between the 10th and 12th day of said cycle. The stimulating effect occurs prior to the 6th cycle day, before a dominant follicle is selected, whereas the inhibiting effect starts on day six or seven after selection of the dominant follicle. However, as we observed, if Clomiphene is administered in the described manner, the growth of the endometrium is inhibited at the same time due to the anti-estrogenic effect of Clomiphene (blocking of the estrogen receptors) and thus the embryos should not be transferred in the same cycle, because implantation success rate is low. In order to increase the implantation success rate, the resulting embryos should be frozen and transferred in the next cycle where no Clomiphene medication is conducted.

Data set [1] relates to women with low ovarian reserve. Nature of the data set: Case study: Clomiphene citrate from day 6 of the cycle to avoid pathological premature LH rise, followed by IVF. It counts as in vivo, human. How it is done: Women with low ovarian reserve take 50 mg oral Clomiphene Citrate every second day or 25 mg each day after the 6th day of the menstrual cycle until the follicle has reached a desired size of 18-20 mm. Subsequently ovulation is artificially triggered by the administration of GnRH (Gonadotropin releasing hormone) analogs, which is preferred, or human chorionic gonadotropin (HCG), 36-40 h after the administration of the ovulation inducing agent, the women had sexual intercourse. Alternatively, the ovum was obtained after 36 h and was fertilized in vitro in the lab.
A nulliparous person with 6 years of infertility had regular short cycles of 23 days. When they were younger, they had longer cycles of up to 29 days, but starting, their cycles became gradually shorter. […] When a vaginal ultrasound scan was performed that day, a follicle of 14 mm on the left ovary was found. […] Their spouse's semen analysis was normal. They had failed six cycles of gonadotrophins-IUI (intra-uterine inseminations) and 4 IVF attempts. The last two cycles had to be cancelled due to low response in a GnRH antagonist protocol with FSH injections of up to 450 IU per day. On day 7 of their cycle a hormonal assay and vaginal ultrasound scan were performed. […] The women came back two days later. The follicle was gone and an oral contraceptive pill (OCP) for 10 days was started in order to prevent follicle growth during luteal phase. Five days after the last OCP, menstrual bleeding started. No dominant follicle could be seen, serum estradiol was 32 pg/mL and FSH 14 IU/L.
The person was again examined on day 9 of their cycle. […] Since oocytes ovulated from follicles smaller than 16 mm are often of a poor quality and do seldom produce a pregnancy, it was refrained from trying to retrieve the egg this time. The person ovulated the next day.
The person was examined again on day 6 of their next cycle. They had 2 small follicles of 12mm and 11mm on their left ovary. Serum estradiol was 113 pg/mL, FSH 7.7 IU/L and LH 5.6 IU/L. In order to avoid another pathological premature LH rise on a small follicle this cycle, the person was treated with small doses of Clomiphene citrate, i.e. 50mg Clomiphene citrate on day 6, 8 and 10 of the cycle. On day 11 two follicles on the left ovarian was found with sizes of 19mm and 15mm. Serum estradiol was 621 pg/mL and LH […]. Ovulation induction with 0.2mg triptorelix was performed on the evening of the next day and an oocyte was retrieved 36 hours later. Two mature eggs could be retrieved, but only one oocyte could be fertilized by IVF. Vaginal progesterone treatment was started the day of the egg retrieval. The embryo was transferred at day 2. Two weeks later the pregnancy test was positive.

As to `CCN(CC)CCOc1ccc(C(=C(Cl)c2ccccc2)c2ccccc2)cc1` [Clomiphene], the “growth of the endometrium” value with endometrium is “inhibited”.

As for `CCN(CC)CCOc1ccc(C(=C(Cl)c2ccccc2)c2ccccc2)cc1` [Clomiphene citrate], in data set [1] (of the two mature eggs retrieved), the “oocytes fertilized by IVF” value is recorded as “only one”. For the same compound, the follicle size in data set [1] (person, 50mg Clomiphene citrate on day 6, 8 and 10 of the cycle, day 11, two follicles on the left ovary (12mm and 11mm on day 6)) was 19 mm and 15 mm. The Serum estradiol in data set [1] (person, 50mg on day 6, 8 and 10 of the cycle, measured on day 11 (113 pg/mL on day 6)) stood at 621 pg/mL. Besides, the LH in data set [1] (person, 50mg on day 6, 8 and 10 of the cycle, measured on day 11 (5.6 IU/L on day 6)) stood at 7.4 IU/L. For the same compound, in data set [1] (retrieval 36 hours after ovulation induction with 0.2mg triptorelix on the evening of day 12), the mature eggs retrieved result is on record as “Two”. In addition, in data set [1] (two weeks after embryo transfer at day 2, same cycle), the pregnancy test entry is given as “positive”.
